Experimental findings from PubChem BioAssay AID1259411 (Chemical Carcinogenesis Research Information System (CCRIS), 2018) are described below.

Each structure is given as a SMILES string. Active and inactive are the calls of the source. How the calls were made is not given here.

In this data set the test system is rodent carcinogenicity bioassays, tumor incidence. The data set can be described thus: CCRIS carcinogenicity studies. An outline of the steps:
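NCI-built, expert-reviewed records of carcinogenicity and related test outcomes (mutagenicity, tumor promotion/inhibition) compiled from published and report sources, historical span 1985-2011, not updated.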

For `CCN(Cc1cccc(S(=O)(=O)O)c1)c1ccc(C(=C2C=CC(=[N+](CC)Cc3cccc(S(=O)(=O)O)c3)C=C2)c2ccccc2S(=O)(=O)[O-])cc1`, the carcinogen call (Species: MOUSE, Strain/Sex: CD-1/FEMALE, Route: ORAL, Dose: 0, 0.5, 1.5, 5% IN DIET FOR 104 WK (STUDY DURATION: LIFETIME), Dose: 0, 0.5, 1.5, 5% IN DIET FOR 104 WK (STUDY DURATION: LIFETIME)) was “inactive; negative”; the carcinogen call (Species: MOUSE, Strain/Sex: CD-1/MALE, Route: ORAL, Dose: 0, 0.5, 1.5, 5% IN DIET FOR 104 WK (STUDY DURATION: LIFETIME), Dose: 0, 0.5, 1.5, 5% IN DIET FOR 104 WK (STUDY DURATION: LIFETIME)) is “inactive; negative”; the carcinogen call (Species: MOUSE, Strain/Sex: ICR/FEMALE, Route: DERMAL, Dose: 0, 1 MG IN 0.1 ML DISTILLED WATER 2/WK FOR A MEAN TOTAL DOSE OF 128.8 MG (STUDY DURATION: 18 MO)) is “inactive; negative”; the carcinogen call (Species: MOUSE, Strain/Sex: ICR/MALE, Route: DERMAL, Dose: 0, 1 MG IN 0.1 ML DISTILLED WATER 2/WK FOR A MEAN TOTAL DOSE OF 128.8 MG (STUDY DURATION: 18 MO)) was “inactive; negative”; the carcinogen call (Species: RAT, Route: SUBCUTANEOUS, Tumor Site: Type of Lesion: INJECTION SITE) is “active; positive”; the carcinogen call (Species: RAT, Strain/Sex: STRAIN-CD/FEMALE, Route: ORAL, Dose: 0, 0.1, 1, 2% IN DIET FOR 111 WK (PARENTS FED 0; 0.1; 1; 2% RESPECTIVELY IN DIET) (STUDY DURATION: LIFETIME), Dose: 0, 0.1, 1, 2% IN DIET FOR 111 WK (PARENTS FED 0; 0.1; 1; 2% RESPECTIVELY IN DIET) (STUDY DURATION: LIFETIME)) was “inactive; negative”. Moreover, under “Species: RAT, Strain/Sex: STRAIN-CD/MALE, Route: ORAL, Dose: 0, 0.1, 1, 2% IN DIET FOR 116 WK (PARENTS FED 0; 0.1; 1; 2% RESPECTIVELY IN DIET) (STUDY DURATION: LIFETIME), Dose: 0, 0.1, 1, 2% IN DIET FOR 116 WK (PARENTS FED 0; 0.1; 1; 2% RESPECTIVELY IN DIET) (STUDY DURATION: LIFETIME)”, the carcinogen call was “inactive; negative”.

On to `CC(=O)OCN(N=O)c1ccccc1`, for which the carcinogen call is “active; positive” (Species: HAMSTER, Strain/Sex: SYRIAN/FEMALE, Route: SUBCUTANEOUS, Dose: 0, 1.56, 3.13 MG/KG/WK IN OLIVE OIL FOR LIFE (STUDY DURATION: 60 WK), Dose: 0, 1.56, 3.13 MG/KG/WK IN OLIVE OIL FOR LIFE (STUDY DURATION: 60 WK), Tumor Site: Type of Lesion: INJECTION SITE: TUMOR); “inactive; negative” (Species: HAMSTER, Strain/Sex: SYRIAN/FEMALE, Route: SUBCUTANEOUS, Dose: 0, 6.25, 12.5 MG/KG/WK IN OLIVE OIL FOR 4 WK (STUDY DURATION: 60 WK), Dose: 0, 6.25, 12.5 MG/KG/WK IN OLIVE OIL FOR 4 WK (STUDY DURATION: 60 WK)); “inactive; negative” (Species: HAMSTER, Strain/Sex: SYRIAN/MALE, Route: SUBCUTANEOUS, Dose: 0, 1.56, 3.13 MG/KG/WK IN OLIVE OIL FOR LIFE (STUDY DURATION: 60 WK), Dose: 0, 1.56, 3.13 MG/KG/WK IN OLIVE OIL FOR LIFE (STUDY DURATION: 60 WK)); “inactive; negative” (Species: HAMSTER, Strain/Sex: SYRIAN/MALE, Route: SUBCUTANEOUS, Dose: 0, 6.25, 12.5 MG/KG/WK IN OLIVE OIL FOR 4 WK (STUDY DURATION: 60 WK), Dose: 0, 6.25, 12.5 MG/KG/WK IN OLIVE OIL FOR 4 WK (STUDY DURATION: 60 WK)).

For the molecule `COC(=O)C1=CCCN(N=O)C1`, the carcinogen call (Species: RAT, Strain/Sex: F344/MALE, Route: ORAL, Dose: 0, 20 PPM IN DRINKING WATER FOR DURATION OF STUDY (TOTAL DOSE: 0; 4.1 MMOL/KG) (STUDY DURATION: 128 WK), Dose: 0, 20 PPM IN DRINKING WATER FOR DURATION OF STUDY (TOTAL DOSE: 0; 4.1 MMOL/KG) (STUDY DURATION: 128 WK), Tumor Site: Type of Lesion: EXOCRINE PANCREAS: ACINAR ADENOMA) is “active; positive”.

With `NC(=S)Nc1ccccc1`, the carcinogen call was “inactive; negative” (Species: MOUSE, Strain/Sex: B6C3F1/FEMALE, Route: ORAL, Dose: 0, 150, 300 PPM IN DIET, Dose: 0, 150, 300 PPM IN DIET); “inactive; negative” (Species: MOUSE, Strain/Sex: B6C3F1/MALE, Route: ORAL, Dose: 0, 150, 300 PPM IN DIET, Dose: 0, 150, 300 PPM IN DIET); “inactive; negative” (Species: RAT, Strain/Sex: F344/FEMALE, Route: ORAL, Dose: 0, 60, 120 PPM IN DIET, Dose: 0, 60, 120 PPM IN DIET); “inactive; negative” (Species: RAT, Strain/Sex: F344/MALE, Route: ORAL, Dose: 0, 60, 120 PPM IN DIET, Dose: 0, 60, 120 PPM IN DIET).

For `O[C@@H]1[C@@H](O)[C@@H]2OC[C@@H](O2)[C@H]1O`, the carcinogen call (Species: MOUSE, Strain/Sex: CD-1/FEMALE, Route: DERMAL, Dose: 0, 20 UMOL/0.1 ML DMSO 2/WK FOR 5 WK FOLLOWED 1 WK LATER BY 0.1 ML ACETONE 2/WK FOR 47 WK (STUDY DURATION: 52 WK)) was “inactive; negative”.

For `Cc1c(N(C)CS(=O)(=O)O)c(=O)n(-c2ccccc2)n1C`, the carcinogen call is, setting by setting: (Species: MOUSE, Strain/Sex: B6C3F1/FEMALE, Route: ORAL, Dose: 0, 0.25, 1% IN DRINKING WATER FOR 78 WK (STUDY DURATION: 86 WK), Dose: 0, 0.25, 1% IN DRINKING WATER FOR 78 WK (STUDY DURATION: 86 WK), Tumor Site: Type of Lesion: LIVER: ADENOMA) “active; positive”; (Species: MOUSE, Strain/Sex: B6C3F1/MALE, Route: ORAL, Dose: 0, 0.125, 0.5% IN DRINKING WATER FOR 78 WK (STUDY DURATION: 86 WK), Dose: 0, 0.125, 0.5% IN DRINKING WATER FOR 78 WK (STUDY DURATION: 86 WK), Tumor Site: Type of Lesion: LIVER: ADENOMA) “active; positive”; (Species: RAT, Strain/Sex: F344/MALE, Route: ORAL, Dose: 0.4% IN DRINKING WATER FOR 72 WK (STUDY DURATION: 83 WK)) “inactive; negative”; (Species: RAT, Strain/Sex: WISTAR/FEMALE, Route: ORAL, Dose: 0, 1000, 3000 PPM IN DIET FOR 24 MO (STUDY DURATION: 30 MO), Dose: 0, 1000, 3000 PPM IN DIET FOR 24 MO (STUDY DURATION: 30 MO)) “inactive; negative”; (Species: RAT, Strain/Sex: WISTAR/MALE, Route: ORAL, Dose: 0, 1000, 3000 PPM IN DIET FOR 24 MO (STUDY DURATION: 30 MO), Dose: 0, 1000, 3000 PPM IN DIET FOR 24 MO (STUDY DURATION: 30 MO)) “inactive; negative”.

Consider `O=[N+]([O-])c1ccc2ccc3ccc([N+](=O)[O-])c4ccc1c2c34`, for which the carcinogen call runs as follows: (Species: RAT, Strain/Sex: F344/MALE, Route: SUBCUTANEOUS, Dose: 0, 0.002, 0.02 MG 2/WK FOR 10 WK (STUDY DURATION: 320 D), Dose: 0, 0.002, 0.02 MG 2/WK FOR 10 WK (STUDY DURATION: 320 D), Tumor Site: Type of Lesion: INJECTION SITE: SARCOMA) “active; positive”; (Species: RAT, Strain/Sex: STRAIN CD/FEMALE, Route: INTRAGASTRIC, Dose: 0, 10 UMOL IN DMSO 3/WK FOR 4 WK (TOTAL DOSE: 16 UMOL/RAT) (STUDY DURATION: 78 WK), Tumor Site: Type of Lesion: ADRENAL GLAND: PHEOCHROMOCYTOMA, CORTICAL ADENOMA, PITUITARY GLAND: CARCINOMA, LIVER: HYPERPLASTIC NODULES, Tumor Site: Type of Lesion: ADRENAL GLAND: PHEOCHROMOCYTOMA, CORTICAL ADENOMA, PITUITARY GLAND: CARCINOMA, LIVER: HYPERPLASTIC NODULES) “active; positive”; (Species: RAT, Strain/Sex: STRAIN CD/FEMALE, Route: INTRAGASTRIC, Dose: 0, 10 UMOL IN DMSO 3/WK FOR 4 WK (TOTAL DOSE: 16 UMOL/RAT) (STUDY DURATION: 78 WK), Tumor Site: Type of Lesion: MAMMARY GLAND: ADENOCARCINOMA, FIBROADENOMA) “active; positive”; (Species: RAT, Strain/Sex: STRAIN CD/FEMALE, Route: INTRAPERITONEAL, Dose: 0, 10 UMOL IN DMSO 3/WK FOR 4 WK (TOTAL DOSE: 16 UMOL/RAT) (STUDY DURATION: 78 WK), Tumor Site: Type of Lesion: HEMATOPOIETIC SYSTEM: HISTIOCYTOMA, LEUKEMIA) “active; positive”; (Species: RAT, Strain/Sex: STRAIN CD/FEMALE, Route: INTRAPERITONEAL, Dose: 0, 10 UMOL IN DMSO 3/WK FOR 4 WK (TOTAL DOSE: 16 UMOL/RAT) (STUDY DURATION: 78 WK), Tumor Site: Type of Lesion: MAMMARY GLAND: ADENOCARCINOMA) “active; positive”; (Species: RAT, Strain/Sex: STRAIN-CD/FEMALE, Route: SUBCUTANEOUS, Dose: 0, 6.3 UMOL (TOTAL DOSE) ADMINISTERED OVER 8 WK BEGINNING ON DAY OF BIRTH (STUDY DURATION: 67 WK), Tumor Site: Type of Lesion: INTEGUMENTARY SYSTEM: MALIGNANT FIBROUS HISTIOCYTOMA, HEMATOPOIETIC SYSTEM: LEUKEMIA) “active; positive”.
